Test system: HCT116 colorectal cancer cells
Assay: Cisplatin sensitization assay (96 h MTS cell viability);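 further: compound concentration needed to lower the IC50 of Cisplatin alone by a set fold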
Assay type: cell-based
Settings: Cisplatin sensitization value
Method in brief: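 The MTS viability read, after 1 h with reagent, followed 96 h of co-treatment at 37° C. in 5% CO2. Both compound and cisplatin were titrated 2-fold from a 10 μM top final concentration in a complete concentration matrix on HCT116 cells. Scores +++/++/+ reflect cisplatin sensitization value ranges.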

Structure (SMILES)	Cisplatin Sensitization Assay
CS(=O)(=O)C1CCN(c2ccncc2NC(=O)c2c(N)nn3cc(F)cnc23)CC1 [I-N-190, 2-amino-6-fluoro-N-(4-(4-(methylsulfonyl)piperidin-1-yl)pyridin-3-yl)pyrazolo[1,5-a]pyrimidine-3-carboxamide]	+++ (Compounds with a Cisplatin sensitization value of <0.02 μM are marked with “+++.”)
CN1CCN(C(=O)C2CCN(c3c(F)cncc3NC(=O)c3c(N)nn4cc(F)cnc34)C2)CC1 (centres unmarked) [I-N-191, 2-amino-6-fluoro-N-(5-fluoro-4-(3-(4-methylpiperazine-1-carbonyl)pyrrolidin-1-yl)pyridin-3-yl)pyrazolo[1,5-a]pyrimidine-3-carboxamide]	+ (Compounds with a Cisplatin sensitization value >0.2 μM but <5 μM are marked with “+.”)
CN1CCN(CC2CCN(c3c(F)cncc3NC(=O)c3c(N)nn4cc(C5(C#N)CC5)cnc34)CC2)CC1 [I-N-192, 2-amino-6-(1-cyanocyclopropyl)-N-(5-fluoro-4-(4-((4-methylpiperazin-1-yl)methyl)piperidin-1-yl)pyridin-3-yl)pyrazolo[1,5-a]pyrimidine-3-carboxamide]	+++ (Compounds with a Cisplatin sensitization value of <0.02 μM are marked with “+++.”)
CN1CCN(CC2CCN(c3c(F)cncc3NC(=O)c3c(N)nn4cc(F)cnc34)CC2)C(=O)C1 [I-N-193, 2-amino-6-fluoro-N-(5-fluoro-4-(4-((4-methyl-2-oxopiperazin-1-yl)methyl)piperidin-1-yl)pyridin-3-yl)pyrazolo[1,5-a]pyrimidine-3-carboxamide]	+++ (Compounds with a Cisplatin sensitization value of <0.02 μM are marked with “+++.”)
CN1CC(C(=O)N2CCN(c3c(F)cncc3NC(=O)c3c(N)nn4cc(F)cnc34)CC2)C1 [I-N-194]	+++ (Compounds with a Cisplatin sensitization value of <0.02 μM are marked with “+++.”)
Nc1nn2cc(F)cnc2c1C(=O)Nc1cnccc1N1CCN(S(=O)(=O)C2COC2)CC1 [I-N-195, 2-amino-6-fluoro-N-(4-(4-(oxetan-3-ylsulfonyl)piperazin-1-yl)pyridin-3-yl)pyrazolo[1,5-a]pyrimidine-3-carboxamide]	+++ (Compounds with a Cisplatin sensitization value of <0.02 μM are marked with “+++.”)
Nc1nn2cc(F)cnc2c1C(=O)Nc1cnccc1N1CCC(S(=O)(=O)N2CCN3CCC2CC3)CC1 [I-N-196, N-(4-(4-(1,4-diazabicyclo[3.2.2]nonan-4-ylsulfonyl)piperidin-1-yl)pyridin-3-yl)-2-amino-6-fluoropyrazolo[1,5-a]pyrimidine-3-carboxamide]	+++ (Compounds with a Cisplatin sensitization value of <0.02 μM are marked with “+++.”)
Nc1nn2cc(F)cnc2c1C(=O)Nc1cnccc1N1CCC(CN2CCC(F)(F)C2)CC1 [I-N-197, 2-amino-N-(4-(4-((3,3-difluoropyrrolidin-1-yl)methyl)piperidin-1-yl)pyridin-3-yl)-6-fluoropyrazolo[1,5-a]pyrimidine-3-carboxamide]	+++ (Compounds with a Cisplatin sensitization value of <0.02 μM are marked with “+++.”)
CN1CCC[C@H]1C(=O)N1CCN(c2ccncc2NC(=O)c2c(N)nn3cc(F)cnc23)CC1 [I-N-198, (S)-2-amino-6-fluoro-N-(4-(4-(1-methylpyrrolidine-2-carbonyl)piperazin-1-yl)pyridin-3-yl)pyrazolo[1,5-a]pyrimidine-3-carboxamide]	++ (Compounds with a Cisplatin sensitization value >0.02 μM but <0.2 μM are marked with “++.”)
CN1CCC[C@@H]1C(=O)N1CCN(c2ccncc2NC(=O)c2c(N)nn3cc(F)cnc23)CC1 [I-N-199, (R)-2-amino-6-fluoro-N-(4-(4-(1-methylpyrrolidine-2-carbonyl)piperazin-1-yl)pyridin-3-yl)pyrazolo[1,5-a]pyrimidine-3-carboxamide]	+++ (Compounds with a Cisplatin sensitization value of <0.02 μM are marked with “+++.”)
Nc1nn2cc(F)cnc2c1C(=O)Nc1cnccc1N1CCC(S(=O)(=O)C2COC2)CC1 [I-N-200, 2-amino-6-fluoro-N-(4-(4-(oxetan-3-ylsulfonyl)piperidin-1-yl)pyridin-3-yl)pyrazolo[1,5-a]pyrimidine-3-carboxamide]	+++ (Compounds with a Cisplatin sensitization value of <0.02 μM are marked with “+++.”)
Nc1nn2cc(F)cnc2c1C(=O)Nc1cncc(F)c1N1CCN(S(=O)(=O)C2COC2)CC1 [I-N-201]	+++ (Compounds with a Cisplatin sensitization value of <0.02 μM are marked with “+++.”)
Nc1nn2cc(F)cnc2c1C(=O)Nc1cncc(F)c1N1CCN(C(=O)C2CC3CCCCN3C2)CC1 (centres unmarked) [I-N-203, 2-amino-6-fluoro-N-(5-fluoro-4-(4-(octahydroindolizine-2-carbonyl)piperazin-1-yl)pyridin-3-yl)pyrazolo[1,5-a]pyrimidine-3-carboxamide]	+++ (Compounds with a Cisplatin sensitization value of <0.02 μM are marked with “+++.”)
CC(C)N1CCCC1C(=O)N1CCN(c2c(F)cncc2NC(=O)c2c(N)nn3cc(F)cnc23)CC1 (centres unmarked) [I-N-205, 2-amino-6-fluoro-N-(5-fluoro-4-(4-(1-isopropylpyrrolidine-2-carbonyl)piperazin-1-yl)pyridin-3-yl)pyrazolo[1,5-a]pyrimidine-3-carboxamide]	++ (Compounds with a Cisplatin sensitization value >0.02 μM but <0.2 μM are marked with “++.”)
CC(C)N1CCC(C(=O)N2CCN(c3c(F)cncc3NC(=O)c3c(N)nn4cc(F)cnc34)CC2)C1 (centres unmarked) [I-N-206, 2-amino-6-fluoro-N-(5-fluoro-4-(4-(1-isopropylpyrrolidine-3-carbonyl)piperazin-1-yl)pyridin-3-yl)pyrazolo[1,5-a]pyrimidine-3-carboxamide]	+++ (Compounds with a Cisplatin sensitization value of <0.02 μM are marked with “+++.”)
COCCS(=O)(=O)C1CCN(c2ccncc2NC(=O)c2c(N)nn3cc(F)cnc23)CC1 [I-N-208, 2-amino-6-fluoro-N-(4-(4-((2-methoxyethyl)sulfonyl)piperidin-1-yl)pyridin-3-yl)pyrazolo[1,5-a]pyrimidine-3-carboxamide]	+++ (Compounds with a Cisplatin sensitization value of <0.02 μM are marked with “+++.”)
CN1CCN(c2ccncc2NC(=O)c2c(N)nn3cc(F)cnc23)CC1=O [I-N-209, 2-amino-6-fluoro-N-(4-(4-methyl-3-oxopiperazin-1-yl)pyridin-3-yl)pyrazolo[1,5-a]pyrimidine-3-carboxamide]	+++ (Compounds with a Cisplatin sensitization value of <0.02 μM are marked with “+++.”)
Nc1nn2cc(F)cnc2c1C(=O)Nc1cnccc1N1CCS(=O)(=O)CC1 [I-N-210, 2-amino-N-(4-(1,1-dioxidothiomorpholino)pyridin-3-yl)-6-fluoropyrazolo[1,5-a]pyrimidine-3-carboxamide]	+++ (Compounds with a Cisplatin sensitization value of <0.02 μM are marked with “+++.”)
Nc1nn2cc(F)cnc2c1C(=O)Nc1cncc(F)c1N1CCN(C(=O)C2CCN(C3COC3)CC2)CC1 [I-N-211, 2-amino-6-fluoro-N-(5-fluoro-4-(4-(1-(oxetan-3-yl)piperidine-4-carbonyl)piperazin-1-yl)pyridin-3-yl)pyrazolo[1,5-a]pyrimidine-3-carboxamide]	++ (Compounds with a Cisplatin sensitization value >0.02 μM but <0.2 μM are marked with “++.”)
CN1CCN(c2c(F)cncc2NC(=O)c2c(N)nn3cc(F)cnc23)CC1=O [I-N-212, 2-amino-6-fluoro-N-(5-fluoro-4-(4-methyl-3-oxopiperazin-1-yl)pyridin-3-yl)pyrazolo[1,5-a]pyrimidine-3-carboxamide]	+++ (Compounds with a Cisplatin sensitization value of <0.02 μM are marked with “+++.”)
Nc1nn2cc(F)cnc2c1C(=O)Nc1cncc(F)c1N1CCC(CN2CCCC2=O)CC1 [I-N-213, 2-amino-6-fluoro-N-(5-fluoro-4-(4-((2-oxopyrrolidin-1-yl)methyl)piperidin-1-yl)pyridin-3-yl)pyrazolo[1,5-a]pyrimidine-3-carboxamide]	+++ (Compounds with a Cisplatin sensitization value of <0.02 μM are marked with “+++.”)
CN1CCCCC1C(=O)N1CCN(c2c(F)cncc2NC(=O)c2c(N)nn3cc(F)cnc23)CC1 (centres unmarked) [I-N-214, 2-amino-6-fluoro-N-(5-fluoro-4-(4-(1-methylpiperidine-2-carbonyl)piperazin-1-yl)pyridin-3-yl)pyrazolo[1,5-a]pyrimidine-3-carboxamide]	++ (Compounds with a Cisplatin sensitization value >0.02 μM but <0.2 μM are marked with “++.”)
CS(=O)(=O)CC1CCN(c2ccncc2NC(=O)c2c(N)nn3cc(F)cnc23)CC1 [I-N-215, 2-amino-6-fluoro-N-(4-(4-((methylsulfonyl)methyl)piperidin-1-yl)pyridin-3-yl)pyrazolo[1,5-a]pyrimidine-3-carboxamide]	+++ (Compounds with a Cisplatin sensitization value of <0.02 μM are marked with “+++.”)
CN1CC2(CCN(c3ccncc3NC(=O)c3c(N)nn4cc(F)cnc34)CC2)OC1=O [I-N-216, 2-amino-6-fluoro-N-(4-(3-methyl-2-oxo-1-oxa-3,8-diazaspiro[4.5]decan-8-yl)pyridin-3-yl)pyrazolo[1,5-a]pyrimidine-3-carboxamide]	+++ (Compounds with a Cisplatin sensitization value of <0.02 μM are marked with “+++.”)
Nc1nn2cc(F)cnc2c1C(=O)Nc1cnccc1N1CCN2C(=O)CC[C@H]2C1 [I-N-217, (S)-2-amino-6-fluoro-N-(4-(6-oxohexahydropyrrolo[1,2-a]pyrazin-2(1H)-yl)pyridin-3-yl)pyrazolo[1,5-a]pyrimidine-3-carboxamide]	++ (Compounds with a Cisplatin sensitization value >0.02 μM but <0.2 μM are marked with “++.”)
Cc1nc(C)n(-c2ccncc2NC(=O)c2c(N)nn3cc(F)cnc23)n1 [I-N-218, 2-amino-N-(4-(3,5-dimethyl-1H-1,2,4-triazol-1-yl)pyridin-3-yl)-6-fluoropyrazolo[1,5-a]pyrimidine-3-carboxamide]	+ (Compounds with a Cisplatin sensitization value >0.2 μM but <5 μM are marked with “+.”)

Reference: patent publication US11117900B2 (Vertex Pharmaceuticals Incorporated, priority 2012, dated 2021)
